From patent US5183821A, “Method for treating leukemias using N-(2-dimethylaminoethyl)-3-amino-1,8-naphthalimide for treating leukemias and solid tumors” (priority 1991, dated 1993)
≈ marks a conversion by molar mass, not a printed value. Entries after “also recorded” stand apart in the source; their conditions may differ.

Columns and labels:
[1] = test system: B16 Melanocarcinoma; experiment: Experiment 16: B16 i.p., saline with Tween-80, male; type: in vivo, Mouse B6 C3 F1
From the text: Tumor: B16 Melanocarcinoma
(§1) Inoculum Site: Intraperitoneal
Tissue: Homogenate (or brei), tumor
(§2) Vehicle: Saline with Tween-80
(§3) Treatment schedule (relative to tumor inoculation day): daily on days 1-9
Day of evaluation (relative to tumor inoculation day): 60
(§4) Parameter: Median survival time (MST) in days
(§5) NCI minimal activity criteria: Percent T/C≥125
(§6) Percent T/C: Ratio of test (T) evaluation to control (C) evaluation expressed as a percentage

[2] = test system: L-1210 Lymphoid leukemia; experiment: Experiment 5: L-1210 i.p., 10^5 cells, acid diluted with saline, female; type: in vivo, Mouse CD2 F1 (CDF1)
From the text: (§7) Host: Mouse CD2 F1 (CDF1)
(§8) Tumor: L-1210 Lymphoid leukemia
as §1
Vehicle: Acid diluted with saline
as §3
(§9) Day of evaluation (relative to tumor inoculation day): 30
as §4, §5, §6

[3] = test system: Colon 38; experiment: Experiment 13: Colon 38 s.c., saline with Tween-80, male; type: in vivo, Mouse B6 D2 F1 (BDF1)
From the text: (§10) Host: Mouse B6 D2 F1 (BDF1)
(§11) Inoculum Site: Subcutaneous
as §2
Treatment schedule (relative to tumor inoculation day): Days 2 and 9
(§12) Day of evaluation (relative to tumor inoculation day): 20
(§13) Parameter: Median tumor weight (MTW) estimated from tumor diameter
(§14) NCI minimal activity criteria: Percent T/C≤42
as §6

[4] = test system: L-1210 Lymphoid leukemia; experiment: Experiment 1: L-1210 i.p., 10^4 cells, acid diluted with saline, male; type: in vivo, Mouse CD2 F1 (CDF1)
From the text: as §7, §8
Inoculum Site: intraperitoneal
Vehicle: Acid Diluted with saline
as §3, §9, §4, §5, §6

[5] = test system: CD8F1 mammary tumor; experiment: NCI screen, CD8F1 mammary tumor, subcutaneous (summary); type: in vivo, Mouse; conditions: for Antitumor activity in words: CD8F1 mammary
From the text: The activity of the compound has been evaluated by experiments carried out under the auspices of the Division of Cancer Treatment, National Cancer Institute, employing techniques considered to be reliable indicators of chemotherapeutic utility in the treatment of forms of cancer in human patients. The details of the methodology employed in the reported experiments may be determined with reference to established NCI screening methods. In the experiments conducted by the NCI, evaluation of activity is made on the basis of appropriate parameters, such as median survival time (MST) or change in average tumor diameter (CATD)in ocular micrometer units (OMU).

[6] = test system: Fischer 344 rats; experiment: Five daily dose rat toxicity study; type: in vivo; conditions: for toxicity summary, rats: five daily doses i.v. (X5)
Experimental: Preclinical toxicity studies of BIDA were completed in CD2F1 Mice, Fischer 344 rats and beagle dogs (4). The animals were injected IV with a single bolus or daily for five days.
A preclinical toxicology study of benzisoquinolinedione (NSC-308847) was done at Springborn Institute for Bioresearch, Inc. using CD2 F1 mice, Fischer 344 rats and beagle dogs. Animals were injected intravenously on a single dose (X1) or five daily dose (X5) regimen. Bulk drug was titrated with 0.5N HCl to form a salt solution of benzisoquinolinedione at a pH of 5.0-6.5. Sterile 0.9% saline was used for diluting the dosing solutions and was used for the vehicle control animals.
The following summarizes the major organ toxicities resulting from IV administration of benzisoquinolinedione to rats.

[7] = test system: HeLa cells; conditions: cytotoxic activity in vitro, monolayer; cited from earlier work
[8] = test system: Colon 38; experiment: Experiment 12 (first): Colon 38 s.c., saline with Tween-80, male; type: in vivo, Mouse B6 D2 F1 (BDF1)
From the text: as §10, §11, §2
Treatment schedule (relative to tumor inoculation day) days 2 and 9
as §12, §13, §14, §6

[9] = 12.0 mg/kg/day, listed as benzisoquinolinedione
[10] = 24.0 mg/kg/day, females, day 8-9
[11] = 24.0 mg/kg/day, listed as benzisoquinolinedione

CN(C)CCN1C(=O)c2cccc3cc(N)cc(c23)C1=O [Example 9, 1H-Benz[de]isoquinoline-1,3(2H)-dione, 5-amino-2-[2-(dimethylamino)ethyl]]
Median survival time (MST) ([1]; 1.00 mg/kg i.p.): 17.6 days
Percent T/C ([1]; 1.00 mg/kg i.p.): 102%
Median survival time (MST) ([1]; 2.00 mg/kg i.p.): 17.3 days
Percent T/C ([1]; 2.00 mg/kg i.p.): 101%
Median survival time (MST) ([1]; 4.00 mg/kg i.p.): 19.3 days
Percent T/C ([1]; 4.00 mg/kg i.p.): 112%
Median survival time (MST) ([1]; 8.00 mg/kg i.p.): 20.3 days
Percent T/C ([1]; 8.00 mg/kg i.p.): 118%
Median survival time (MST) ([1]; 16.00 mg/kg i.p.): 35.0 days
Percent T/C ([1]; 16.00 mg/kg i.p.): 87%
Median survival time (MST) ([1]; 32.00 mg/kg i.p.): 8.3 days
Median survival time (MST) ([2]; 5.00 mg/kg i.p.): 11.0 days
Percent T/C ([2]; 5.00 mg/kg i.p.): 113%
Median survival time (MST) ([2]; 7.00 mg/kg i.p.): 11.1 days
Percent T/C ([2]; 7.00 mg/kg i.p.): 114%
Median survival time (MST) ([2]; 10.00 mg/kg i.p.): 11.4 days
Percent T/C ([2]; 10.00 mg/kg i.p.): 117%
Median survival time (MST) ([2]; 16.00 mg/kg i.p.): 17.0 days
Percent T/C ([2]; 16.00 mg/kg i.p.): 175%
Median survival time (MST) ([2]; 24.00 mg/kg i.p.): 13.3 days
Percent T/C ([2]; 24.00 mg/kg i.p.): 137%
Median tumor weight (MTW) ([3]; 16.00 mg/kg i.p.): 2474
Percent T/C ([3]; 16.00 mg/kg i.p.): 102%
Median tumor weight (MTW) ([3]; 32.00 mg/kg i.p.): 1146
Percent T/C ([3]; 32.00 mg/kg i.p.): 47%
Median tumor weight (MTW) ([3]; 64.00 mg/kg i.p.): 700
Percent T/C ([3]; 64.00 mg/kg i.p.): 29%
Median tumor weight (MTW) ([3]; 128.00 mg/kg i.p.): Deaths before evaluation
Median survival time (MST) ([4]; 2.00 mg/kg i.p.): 9.9 days
Percent T/C ([4]; 2.00 mg/kg i.p.): 107%
Median survival time (MST) ([4]; 4.00 mg/kg i.p.): 10.4 days
Percent T/C ([4]; 4.00 mg/kg i.p.): 113%
Median survival time (MST) ([4]; 8.00 mg/kg i.p.): 12.3 days
Percent T/C ([4]; 8.00 mg/kg i.p.): 133%
Median survival time (MST) ([4]; 16.00 mg/kg i.p.): 20.0 days
Percent T/C ([4]; 16.00 mg/kg i.p.): 217%
Median survival time (MST) ([4]; 32.00 mg/kg i.p.): 8.8 days
Percent T/C ([4]; 32.00 mg/kg i.p.): 95%
Antitumor activity in words ([5]; listed as BIDA): not active
Antitumor activity in words ([5]; listed as the compound): not observed to be effective
Table II evaluation ([5]; change in median tumor weight, 15 tests, full wrapped cell: Activity not confirmed): Activity not
gross or microscopic lesions ([6]; 6.0 mg/kg): No drug-related gross or microscopic lesions were found
Mortality / lethality ([6]; 6.0 mg/kg/day (1/2MELD10)): 0/20
Hematologic findings ([6]; 6.0 mg/kg, listed as benzisoquinolinedione): Female rats showed moderate increases in reticulocytes on days 15 and 22, followed by a moderate decrease on day 36; also recorded: The males were not affected
Mortality / lethality ([6]; 12.0 mg/kg/day (MELD10)): 0/20
Reproductive findings ([6]; 12.0 mg/kg/day, day 36, listed as benzisoquinolinedione): slight decrease in testicular weight on day 36; also recorded: moderate testicular atrophy in all males
mild to moderate diffuse bone marrow atrophy, incidence ([6]; 12.0 mg/kg/day, females, day 8): 4/5
Hematologic findings [6, 9]: Slight decreases in hemoglobin, hematocrit and red blood cells were seen in female rats on day 8; also recorded: moderate reticulocytopenia; also recorded: male rats had a mild increase in reticulocytes on day 22; also recorded: Females had slight to mild leukocytosis on days 15 and 22; also recorded: The males had a moderate increase in WBC only on day 15; also recorded: No microscopic lesions were seen on day 36 in either sex
Integumentary findings [6, 9]: dry yellowish-white scaly tails; also recorded: microscopic evaluation did not show any tail lesions
mild thymic atrophy, incidence ([6]; 12.0 mg/kg/day, males, day 8): 1/5
mild to moderate diffuse bone marrow atrophy, incidence ([6]; 12.0 mg/kg/day, males, day 8): 4/5
Mortality / lethality ([6]; 24.0 mg/kg/day (2XMELD10), listed as benzisoquinolinedione): 5/20 and Two females were found dead and three females were sacrificed
marked testicular atrophy, incidence ([6]; 24.0 mg/kg/day, day 36): 2/5
moderate testicular atrophy, incidence ([6]; 24.0 mg/kg/day, day 36): 2/5
severe testicular atrophy, incidence ([6]; 24.0 mg/kg/day, day 36): 1/5
moderate to marked spleen atrophy, incidence ([6]; 24.0 mg/kg/day, females): 3/10
marked jejunal epithelial degeneration, incidence ([6]; 24.0 mg/kg/day, females, day 8): 5/10
marked necrosis of mesenteric lymph node, incidence ([6]; 24.0 mg/kg/day, females, day 8): 1/10
mild atrophy of mesenteric lymph node, incidence ([6]; 24.0 mg/kg/day, females, day 8): 1/10
mild to marked duodenal epithelial degeneration, incidence ([6]; 24.0 mg/kg/day, females, day 8): 5/10
mild to marked duodenal epithelial necrosis, incidence ([6]; 24.0 mg/kg/day, females, day 8): 7/10
mild to marked ileal epithelial necrosis, incidence ([6]; 24.0 mg/kg/day, females, day 8): 10/10
mild to marked jejunal epithelial necrosis, incidence ([6]; 24.0 mg/kg/day, females, day 8): 9/10
mild to severe colonic epithelial necrosis, incidence ([6]; 24.0 mg/kg/day, females, day 8): 3/10
moderate to marked ileal epithelial degeneration, incidence ([6]; 24.0 mg/kg/day, females, day 8): 5/10
marked to severe bone marrow atrophy, incidence [6, 10]: 10/10
marked to severe thymic atrophy, incidence [6, 10]: 9/10
Hepatic findings ([6]; 24.0 mg/kg/day, females, day 9): multifocal liver necrosis in two females
Gastrointestinal findings [6, 11]: Diarrhea was observed on days 6 to 10 in males and days 6 to termination (day 8 or 9) in females; also recorded: mild to marked epithelial degeneration and necrosis of the duodenum, jejunum and ileum of both sexes; also recorded: No lesions were seen in long-term males; also recorded: emaciation (days 7-12) and dehydration (days 9-12)
Hematologic findings [6, 11]: Mild increases in hemoglobin, hematocrit and red blood cells were seen in male rats on day 8; also recorded: moderate to slight decreases in these parameters on days 15 and 22; also recorded: No reticulocytes were observable in either sex on day 8; also recorded: marked decreases being seen on day 8, followed by moderate to marked increases above baselines on days 15 and 22; also recorded: mild thrombocytosis
Reproductive findings [6, 11]: All five males showed decreased testicular weights on day 36; also recorded: No reproductive lesions were seen on day 8 in males or females
marked jejunal epithelial degeneration, incidence ([6]; 24.0 mg/kg/day, males, day 8): 4/5
marked to severe bone marrow atrophy, incidence ([6]; 24.0 mg/kg/day, males, day 8): 5/5
marked to severe thymic atrophy, incidence ([6]; 24.0 mg/kg/day, males, day 8): 3/5
mild necrosis of the hair bulb, incidence ([6]; 24.0 mg/kg/day, males, day 8): 2/5
mild to marked duodenal epithelial degeneration, incidence ([6]; 24.0 mg/kg/day, males, day 8): 4/5
mild to marked duodenal epithelial necrosis, incidence ([6]; 24.0 mg/kg/day, males, day 8): 5/5
mild to marked ileal epithelial necrosis, incidence ([6]; 24.0 mg/kg/day, males, day 8): 4/5
mild to marked jejunal epithelial necrosis, incidence ([6]; 24.0 mg/kg/day, males, day 8): 4/5
moderate to marked ileal epithelial degeneration, incidence ([6]; 24.0 mg/kg/day, males, day 8): 4/5
depression of group mean body weights ([6]; 24.0 mg/kg/day, males, day 26 as printed): 31
body weight loss at termination ([6]; 24.0 mg/kg/day, males, day 36): 31
moderate bone marrow atrophy, incidence ([6]; 24.0 mg/kg/day, males, day 36): 1/5
moderate to marked hyperkeratosis, incidence ([6]; 24.0 mg/kg/day, males, day 36): 4/5
moderate to severe thymic atrophy, incidence ([6]; 24.0 mg/kg/day, males, day 36): 2/5
depression of group mean body weights ([6]; 24.0 mg/kg/day, males, days 15 and 22): 26
Tail (integumentary) findings ([6]; 24.0 mg/kg/day, males, listed as benzisoquinolinedione): the tail skin was friable and sloughing in males; also recorded: severe tail necrosis in all five males
Deaths, females ([6]; 2XMELD10, X5): one-half of the females
toxicity summary, rats ([6]; listed as BIDA): reproductive system toxicity was seen at doses of MELD 10 and higher
toxicity summary, rats ([6]; listed as benzisoquinolinedione): toxic on both schedules (X1, X5) to the hematopoietic system and to the male reproductive system; also recorded: gastrointestinal, tail lesions and possibly hepatotoxicity; also recorded: Toxicity to the testes and tails was delayed and had not reversed by day 36
ID50 in HeLa cells [7]: 2.5 µg/mL (≈ 8.82 µM)
Median tumor weight (MTW) ([8]; 2.00 mg/kg i.p.): 685
Percent T/C ([8]; 2.00 mg/kg i.p.): 72%
Median tumor weight (MTW) ([8]; 4.00 mg/kg i.p.): 775
Percent T/C ([8]; 4.00 mg/kg i.p.): 81%
Median tumor weight (MTW) ([8]; 8.00 mg/kg i.p.): 861
Percent T/C ([8]; 8.00 mg/kg i.p.): 90%
Median tumor weight (MTW) ([8]; 16.00 mg/kg i.p.): 733
Percent T/C ([8]; 16.00 mg/kg i.p.): 77%
Median tumor weight (MTW) ([8]; 32.00 mg/kg i.p.): 270
Percent T/C ([8]; 32.00 mg/kg i.p.): 28%
Median tumor weight (MTW) ([8]; 64.00 mg/kg i.p.): 252
Percent T/C ([8]; 64.00 mg/kg i.p.): 26%
